For 21 compounds, IC50 results are on record in patent US10112899B2 (ViiV HEALTHCARE UK LIMITED, priority 2014, dated 2018).

Structures are written as SMILES.

The subject of the assay is HIV in the HTLV-1 transformed cell line MT-4. Put plainly: organism not typed. The note with it: MT4, 96 h, MT-4 cells; luciferase/cell titer glo readout after 96 hours; 10 point dose response. The format is cell-based. For orientation: ATP-based viability assays read luminescence as a measure of living cells.
Consider `Cc1ccc(-c2c(C)c3c(c(C)c2[C@H](OC(C)(C)C)C(=O)O)CN(C(=O)c2ccc(F)cc2F)C3)cc1` [Example 247, (S)-2-(tert-butoxy)-2-(2-(2,4-difluorobenzol)-4,7-dimethyl-6-(p-tolyl)isoindolin-5-yl)acetic acid], for which half-maximal inhibition (IC50) was put at 5 nM.

Turning to `Cc1c(F)cccc1C(=O)N1Cc2c(C)c(-c3cc(F)c4c(c3C)CCCO4)c([C@H](OC(C)(C)C)C(=O)O)c(C)c2C1` (atropisomer, axis not shown; (M)) [Example 141, (S)-2-(tert-butoxy)-2-((M)-2-(3-fluoro-2-methylbenzoyl)-6-(8-fluoro-5-methylchroman-6-yl)-4,7-dimethylisoindolin-5-yl)acetic acid], inhibition was half-maximal at 4 nM (IC50).

For the compound `Cc1ccc(-c2c(C)c3c(c(C)c2[C@H](OC(C)(C)C)C(=O)O)CN(CC2CCCCC2)C3)cc1` [Example 30, (S)-2-(tert-butoxy)-2-(2-(cyclohexylmethyl)-4,7-dimethyl-6-(p-tolyl)isoindolin-5-yl)acetic acid], half-maximal inhibition (IC50) was put at 47 nM.

Take `Cc1ccc(-c2c(C)c3c(c(C)c2C(OC(C)(C)C)C(=O)O)CN(S(C)(=O)=O)C3)cc1` (stereo not drawn) [Example 15, 2-(tert-Butoxy)-2-(4,7-dimethyl-2-(methylsulfonyl)-6-(p-tolyl)isoindolin-5-yl)acetic acid]: the IC50 – broadly, the concentration that inhibits the measured activity by half – was 2130 nM.

The compound `Cc1ccc(-c2c(C)c3c(c(C)c2[C@H](OC(C)(C)C)C(=O)O)CN(C(=O)N2CCCCCC2)C3)cc1` [Example 60, (2S)-2-[2-(azepane-1-carbonyl)-4,7-dimethyl-6-(4-methylphenyl)-2,3-dihydro-1H-isoindol-5-yl]-2-(tert-butoxy)acetic acid] displayed an IC50 of 14 nM.

On to `COc1cccc(C(=O)N2Cc3c(C)c(-c4ccc(C)cc4)c([C@H](OC(C)(C)C)C(=O)O)c(C)c3C2)c1OC` [Example 284, (S)-2-(tert-butoxy)-2-(2-(2,3-dimethoxybenzoyl)-4,7-dimethyl-6-(p-tolyl)isoindolin-5-yl)acetic acid], for which 48 nM corresponded to half-maximal inhibition (IC50).

`Cc1ccc(-c2c(C)c3c(c(C)c2[C@H](OC(C)(C)C)C(=O)O)CN(C(=O)N(C)CC2CCCCC2)C3)cc1` [Example 78, (2S)-2-(tert-butoxy)-2-{2-[(cyclohexylmethyl)(methyl)carbamoyl]-4,7-dimethyl-6-(4-methylphenyl)-2,3-dihydro-1H-isoindol-5-yl}acetic acid] had an IC50 of 126 nM.

In turn, `Cc1ccc(-c2c(C)c3c(c(C)c2[C@H](OC(C)(C)C)C(=O)O)CN(C(=O)N2CCC(C)(C)CC2)C3)cc1` [Example 84, (S)-2-(tert-butoxy)-2-(2-(4,4-dimethylpiperidine-1-carbonyl)-4,7-dimethyl-6-(p-tolyl)isoindolin-5-yl)acetic acid] had an IC50 of 11 nM.

On to `Cc1ccc(-c2c(C)c3c(c(C)c2C(OC(C)(C)C)C(=O)O)CN(Cc2ccccc2)C3)cc1` (stereo not drawn) [Example 9, 2-(2-Benzyl-4,7-dimethyl-6-(p-tolyl)isoindolin-5-yl)-2-(tert-butoxy)acetic acid], for which the IC50 was determined as 98 nM.

As to `Cc1ccc(-c2c(C)c3c(c(C)c2[C@H](OC(C)(C)C)C(=O)O)CN(C(=O)c2ccc4c(c2)OCO4)C3)cc1` [Example 265, (S)-2-(2-(benzo[d][1,3]dioxole-5-carbonyl)-4,7-dimethyl-6-(p-tolyl)isoindolin-5-yl)-2-(tert-butoxy)acetic acid], the IC50 came out at 4 nM.

The compound `Cc1ccc(-c2c(C)c3c(c(C)c2[C@H](OC(C)(C)C)C(=O)O)CN(C(=O)Cc2cccc(F)c2)C3)cc1` [Example 233, (S)-2-(tert-butoxy)-2-(2-(2-(3-fluorophenyl)acetyl)-4,7-dimethyl-6-(p-tolyl)isoindolin-5-yl)acetic acid] showed an IC50 of 12 nM.

In turn, `Cc1c(-c2c(C)c3c(c(C)c2[C@H](OC(C)(C)C)C(=O)O)CN(C(=O)N2CCC(F)(F)C2)C3)cc(F)c2c1CCCO2` (atropisomer, axis not shown; (M)) [Example 100, (2S)-2-(tert-Butoxy)-2-(2-(3,3-difluoropyrrolidine-1-carbonyl)-6-(M)-(8-fluoro-5-methylchroman-6-yl)-4,7-dimethylisoindolin-5-yl)acetic acid] gave an IC50 of 5 nM.

On to `Cc1ccc(-c2c(C)c3c(c(C)c2[C@H](OC(C)(C)C)C(=O)O)CN(C(=O)c2cn(C)cn2)C3)cc1` [Example 237, (S)-2-(tert-butoxy)-2-(4,7-dimethyl-2-(1-methyl-1H-imidazole-4-carbonyl)-6-(p-tolyl)isoindolin-5-yl)acetic acid], for which the IC50 amounted to 67 nM.

`Cc1c(-c2c(C)c3c(c(C)c2[C@H](OC(C)(C)C)C(=O)O)CN(C(=O)c2cccc4ccccc24)C3)cc(F)c2c1CCCO2` (atropisomer, axis not shown; (M)) [Example 168, (S)-2-((M)-2-(1-naphthoyl)-6-(8-fluoro-5-methylchroman-6-yl)-4,7-dimethylisoindolin-5-yl)-2-(tert-butoxy)acetic acid] gave an IC50 of 11 nM.

The compound `Cc1ccc(-c2c(C)c3c(c(C)c2[C@H](OC(C)(C)C)C(=O)O)CN(C(=O)c2cc(C)c(F)c(F)c2)C3)cc1` [Example 278, (S)-2-(tert-butoxy)-2-(2-(3,4-difluoro-5-methylbenzoyl)-4,7-dimethyl-6-(p-tolyl)isoindolin-5-yl)acetic acid] had an IC50 of 5 nM.

In turn, `COc1cc(C(=O)N2Cc3c(C)c(-c4ccc(C)cc4)c([C@H](OC(C)(C)C)C(=O)O)c(C)c3C2)ccc1C` [Example 222, (S)-2-(tert-butoxy)-2-(2-(3-methoxy-4-methylbenzoyl)-4,7-dimethyl-6-(p-tolyl)isoindolin-5-yl)acetic acid] had an IC50 of 4 nM.

`COc1ccc(C)cc1C(=O)N1Cc2c(C)c(-c3cc(F)c4c(c3C)CCCO4)c([C@H](OC(C)(C)C)C(=O)O)c(C)c2C1` (atropisomer, axis not shown; (M)) [Example 183, (S)-2-(tert-butoxy)-2-((M)-6-(8-fluoro-5-methylchroman-6-yl)-2-(2-methoxy-5-methylbenzoyl)-4,7-dimethylisoindolin-5-yl)acetic acid] gave an IC50 of 4 nM.

Consider `Cc1ccc(-c2c(C)c3c(c(C)c2[C@H](OC(C)(C)C)C(=O)O)CN(C(=O)CC2CCCCC2)C3)cc1` [Example 117, (S)-2-(tert-butoxy)-2-(2-(2-cyclohexylacetyl)-4,7-dimethyl-6-(p-tolyl)isoindolin-5-yl)acetic acid], for which the IC50 turned out to be 17 nM.

`Cc1ccc(-c2c(C)c3c(c(C)c2[C@H](OC(C)(C)C)C(=O)O)CN(C(=O)c2cccc(C)c2)C3)cc1` [Example 225, (S)-2-(tert-butoxy)-2-(4,7-dimethyl-2-(3-methylbenzoyl)-6-(p-tolyl)isoindolin-5-yl)acetic acid]: the IC50 is 5 nM.

Compound `Cc1ccc(-c2c(C)c3c(c(C)c2[C@H](OC(C)(C)C)C(=O)O)CN(C(=O)c2ccc4c(c2)B(O)OC4)C3)cc1` [Example 256, (S)-2-(tert-butoxy)-2-(2-(1-hydroxy-1,3-dihydrobenzo[c][1,2]oxaborole-6-carbonyl)-4,7-dimethyl-6-(p-tolyl)isoindolin-5-yl)acetic acid] came in with an IC50 of 740 nM.

Regarding `Cc1ccc(C(=O)N2Cc3c(C)c(-c4cc(F)c5c(c4C)CCCO5)c([C@H](OC(C)(C)C)C(=O)O)c(C)c3C2)cc1` (atropisomer, axis not shown; (M)) [Example 190, (S)-2-(tert-butoxy)-2-((M)-6-(8-fluoro-5-methylchroman-6-yl)-4,7-dimethyl-2-(4-methylbenzoyl)isoindolin-5-yl)acetic acid], the IC50 turned out to be 5 nM.
